The values that follow are results of earlier work, collected in US20070281995A1, “Creatine analog prodrugs, compositions and uses thereof” (XenoPort, Inc., priority 2006, published 2007).

The conditions of series [1]: healthy volunteers, oral creatine administration.
Test in series [2]: not given
The source holds these as a separate data set.

For series [3] the following is noted: animals fed a diet containing up to 1%.

Like-named read-outs stand apart in the source and are kept apart here.

Take `CN(CC(=O)O)C(=N)N.O` [creatine monohydrate]: the adverse side effects result (athletes and body builders, 2-3 gm/day) was “without adverse side effects”. `CN(CC(=O)O)C(=N)NP(=O)(O)O` [creatine phosphate]: under “patients with cardiac diseases, intravenous injection up to 8 gm/day”, the adverse side effects entry is “without adverse side effects”. On to `CN(CC(=O)O)C(=N)N` [creatine, Creatine], for which the “increase of cerebral creatine phosphate” value in series [1] is on record as “about 10%”. Besides, the “overall increase in creatine phosphate levels” value in series [2] (creatine supplementation, typically takes weeks) is listed as below 50%. The “duration of increases in tissue creatine phosphate levels” value in series [2] (following oral creatine supplementation) is above 14 days. For `NC1=NCCN1CC(=O)O` [cyclocreatine], the adverse effects entry in series [3] is on record as “do not exhibit adverse effects”.
